Data taken from paper PMC4010227 (Journal of computer-aided molecular design, 2010).

Molecular target: F508del-CFTR (Homo sapiens, UniProt P13569, DEL508-508)
Assay: Ussing chamber short-circuit current, acute cumulative dose response
Type: cell-based

For EPX-108380, the EC50 was < 1000 nM.
